{"source": "ChEMBL document CHEMBL5154872", "about": "(Eur J Med Chem, 2022)", "key": {"[1]": {"target": "T1, Programmed cell death 1 ligand 1 (Homo sapiens, UniProt Q9NZQ7)", "T1 sequence (Q9NZQ7 whole entry)": "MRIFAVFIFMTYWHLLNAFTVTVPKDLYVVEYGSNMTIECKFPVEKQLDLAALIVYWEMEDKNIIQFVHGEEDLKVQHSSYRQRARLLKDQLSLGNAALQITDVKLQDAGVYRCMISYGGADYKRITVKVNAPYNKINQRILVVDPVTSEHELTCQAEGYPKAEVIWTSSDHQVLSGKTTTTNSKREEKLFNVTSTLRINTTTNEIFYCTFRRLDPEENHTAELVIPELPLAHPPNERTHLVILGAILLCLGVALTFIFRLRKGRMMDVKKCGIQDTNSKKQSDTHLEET", "assay": "Binding affinity towards His-tagged recombinant human PD-L1 measured by MST dimerization binding assay", "type": "single protein"}, "[2]": {"assay": "Reactivation of mouse CTLL-2 cells pretreated with human PD-L1 assessed as increase in cell proliferation and measured by flow cytometry assay", "type": "functional, cell-based"}, "[3]": {"assay": "Solubility in PBS at pH 7.4", "type": "physicochemical"}, "[4]": {"assay": "1-Octanol/phosphate buffered-saline distribution coefficient, logD of compound at pH 7.4 measured after 2 hrs by LC-MS analysis", "type": "physicochemical"}, "[5]": {"assay": "Stability in CD-1 mouse plasma assessed as half-ife at 10 uM", "type": "ADME, cell-free"}, "[6]": {"target": "T1, Programmed cell death 1 ligand 1", "assay": "Binding affinity towards His-tagged recombinant human PD-L1 measured by MicroScale Thermophoresis (MST) assay"}, "[7]": {"target": "Programmed cell death protein 1/Programmed cell death 1 ligand 1 (Homo sapiens, UniProt Q9NZQ7)", "sequence (Q15116 whole entry)": "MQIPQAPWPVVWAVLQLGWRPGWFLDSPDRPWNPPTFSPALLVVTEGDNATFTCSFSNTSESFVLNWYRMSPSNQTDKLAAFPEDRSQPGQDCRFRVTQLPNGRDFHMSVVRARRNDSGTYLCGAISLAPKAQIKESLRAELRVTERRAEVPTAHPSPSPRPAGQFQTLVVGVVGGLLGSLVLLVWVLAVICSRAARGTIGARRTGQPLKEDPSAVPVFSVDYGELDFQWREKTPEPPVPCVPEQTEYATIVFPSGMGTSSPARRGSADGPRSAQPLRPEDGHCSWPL", "sequence (Q9NZQ7 whole entry)": "as the sequence (Q9NZQ7 whole entry) above", "assay": "Inhibition of human PD-1/PD-L1 interaction in CHO-K1 cells transfected with PD-1-YFP/SHP-2-CFP and measured by FRET assay", "type": "cell-based"}}, "data": [{"compound": "CC1=NN(c2ccccn2)C(=O)C1", "values": [{"measurement": "Kd", "setting": "[1]", "result": 53, "unit": "nM"}, {"measurement": "IC50", "setting": "[2]", "result": 102, "unit": "nM"}, {"measurement": "solubility", "setting": "[3]", "result": "> 200", "unit": "µM"}, {"measurement": "logD at 2 h", "setting": "[4]", "result": 0.85}, {"measurement": "half-life at 10 µM", "setting": "[5]", "result": 16, "unit": "min"}]}, {"compound": "COc1ccc(C2=NN(c3ccccn3)C(=O)C2)cc1", "values": [{"measurement": "Kd", "setting": "[1]", "result": 2, "unit": "nM"}, {"measurement": "IC50", "setting": "[2]", "result": 75, "unit": "nM"}, {"measurement": "solubility", "setting": "[3]", "result": 199, "unit": "µM"}, {"measurement": "logD at 2 h", "setting": "[4]", "result": 2.82}, {"measurement": "half-life at 10 µM", "setting": "[5]", "result": 12, "unit": "min"}]}, {"compound": "CCC1=NN(c2ccccn2)C(=O)C1", "values": [{"measurement": "Kd", "setting": "[6]", "result": "> 500000", "unit": "nM"}]}, {"compound": "COc1ccccc1C1=NN(c2ccccn2)C(=O)C1", "values": [{"measurement": "Kd", "setting": "[1]", "result": 46, "unit": "nM"}, {"measurement": "IC50", "setting": "[2]", "result": 14, "unit": "nM"}, {"measurement": "solubility", "setting": "[3]", "result": 80.9, "unit": "µM"}, {"measurement": "logD at 2 h", "setting": "[4]", "result": 2.56}, {"measurement": "half-life at 10 µM", "setting": "[5]", "result": 10.9, "unit": "min"}]}, {"compound": "Cc1ccccc1C1=NN(c2ccccn2)C(=O)C1", "values": [{"measurement": "Kd", "setting": "[6]", "result": "> 500000", "unit": "nM"}]}, {"compound": "O=C1CC(c2ccc(C(F)(F)F)cc2)=NN1c1ccccn1", "values": [{"measurement": "Kd", "setting": "[6]", "result": 156, "unit": "nM"}, {"measurement": "IC50", "setting": "[7]", "result": 143, "unit": "nM"}]}, {"compound": "O=C1CC(c2ccccc2Cl)=NN1c1ccccn1", "values": [{"measurement": "Kd", "setting": "[6]", "result": "> 500000", "unit": "nM"}]}, {"compound": "O=C1CC(c2ccccn2)=NN1c1ccccn1", "values": [{"measurement": "Kd", "setting": "[6]", "result": "> 500000", "unit": "nM"}]}, {"compound": "Cc1ccc(C2=NN(c3ccccn3)C(=O)C2)cc1", "values": [{"measurement": "Kd", "setting": "[6]", "result": 1090, "unit": "nM"}]}, {"compound": "O=C1CC(c2ccccc2F)=NN1c1ccccn1", "values": [{"measurement": "Kd", "setting": "[6]", "result": "> 500000", "unit": "nM"}]}, {"compound": "O=C1CC(c2ccc(Cl)c(Cl)c2)=NN1c1ccccn1", "values": [{"measurement": "Kd", "setting": "[6]", "result": 584, "unit": "nM"}]}, {"compound": "O=C1CC(C23CC4CC(CC(C4)C2)C3)=NN1c1ccc(Cl)cc1Cl", "values": [{"measurement": "Kd", "setting": "[1]", "result": 24, "unit": "nM"}, {"measurement": "IC50", "setting": "[7]", "result": 9, "unit": "nM"}, {"measurement": "IC50", "setting": "[2]", "result": 54, "unit": "nM"}, {"measurement": "solubility", "setting": "[3]", "result": 1.9, "unit": "µM"}, {"measurement": "logD at 2 h", "setting": "[4]", "result": 4.28}, {"measurement": "half-life at 10 µM", "setting": "[5]", "result": 31, "unit": "min"}]}, {"compound": "O=C1CC(c2cccc(Cl)c2)=NN1c1ccccn1", "values": [{"measurement": "Kd", "setting": "[6]", "result": "> 500000", "unit": "nM"}]}, {"compound": "Cc1cccc(C2=NN(c3ccccn3)C(=O)C2)c1", "values": [{"measurement": "Kd", "setting": "[6]", "result": "> 500000", "unit": "nM"}]}, {"compound": "CCCC1=NN(c2ccccn2)C(=O)C1", "values": [{"measurement": "Kd", "setting": "[6]", "result": "> 500000", "unit": "nM"}]}, {"compound": "CCCCC1=NN(c2ccccn2)C(=O)C1", "values": [{"measurement": "Kd", "setting": "[6]", "result": "> 500000", "unit": "nM"}]}, {"compound": "CC(C)C1=NN(c2ccccn2)C(=O)C1", "values": [{"measurement": "Kd", "setting": "[6]", "result": "> 500000", "unit": "nM"}]}, {"compound": "COc1ccc(C2=NN(c3ccccn3)C(=O)C2)cc1OC", "values": [{"measurement": "Kd", "setting": "[6]", "result": 1.19, "unit": "nM"}, {"measurement": "Kd", "setting": "[1]", "result": 0.7, "unit": "nM"}, {"measurement": "IC50", "setting": "[7]", "result": 7.3, "unit": "nM"}, {"measurement": "IC50", "setting": "[2]", "result": 4.1, "unit": "nM"}, {"measurement": "solubility", "setting": "[3]", "result": 183, "unit": "µM"}, {"measurement": "logD at 2 h", "setting": "[4]", "result": 2.19}, {"measurement": "half-life at 10 µM", "setting": "[5]", "result": 30, "unit": "min"}]}, {"compound": "CC(C)(C)C1=NN(c2ccccn2)C(=O)C1", "values": [{"measurement": "Kd", "setting": "[6]", "result": "> 500000", "unit": "nM"}]}]}
